According to patent US20220118124A1, “R[…]-LABELED, PHOTO-CRO[…], AND PREPARATION METHOD THEREFOR” (SNVIA CO., LTD., priority 2019, published 2022):

Experiment: In vivo local retention experiment of ^131I-HAMA microgel (SPECT gamma imaging after injection into femoral muscle)
Conditions: rat
Method: An experiment was performed to confirm the distribution of ^131I and how long the ^131I-HAMA microgel was maintained at the site injected into the body. After injecting 0.2 mL of a solution of Na^131I and ^131I-HAMA microgel (1 mCi/mL) dispersed in PBS into the femoral muscle of the rat, gamma images were obtained over time with the SPECT imaging system (Infinia Hawkeye 4, GE Healthcare, USA). Within 30 minutes immediately after injection, the radioactivity at the injection site was measured with a counter per second in a dynamic mode. After 30 minutes, an image of the whole rat injected with ^131I over time was obtained in static mode, and gamma counters of major tissues such as the injection site, thyroid gland and stomach were measured.

In the case of [131I-].[Na+] [^131I solution, Na^131I], the “radiation intensity over time in vivo” value (after injection into femoral muscle) is reported as “decreased rapidly”, the “time to flow to the whole body (SPECT image)” value (intramuscular injection, 200 μCi) is reported as 30 min and the “spreading rate in the body from the injection site (dynamic imaging)” value (within 30 minutes after injection) is reported as “faster than that of the ^131I-HAMA microgel”. The “migration of ^131I to other tissues (gamma counts)” value (injection site, thyroid gland, stomach, bladder) was “measured in the thyroid gland, stomach, and bladder in addition to the injection site”.
